Laboratory results reported in patent US10597390B2, “Indoles for use in influenza virus infection” (Janssen Sciences Ireland UC, priority 2014, dated 2020).

How the values were obtained:
[1] = tested on: influenza virus A/Taiwan/1/86 (H1N1); test: organism not typed; format: cell-based; conditions: MDCK, 72 h, CPE in MDCK cells, three days post-virus exposure, ATPlite
in vitro = conditions: dog, TOX MDCK CC50

SMILES: CC(=O)NCc1ccc(N[C@H]2CCC[C@@H](NC(=O)N3CCCC3)C2)nc1-c1c[nH]c2c(F)cc(F)cc12 (racemic) [Compound 260, N-((cis)-3-((5-(acetamidomethyl)-6-(5,7-difluoro-1H-indol-3-yl)pyridin-2-yl)amino)-cyclohexyl)pyrrolidine-1-carboxamide]
- IC50 [1]: 610 nM
- CC50 at 3 days (in vitro): > 25000 nM
- melting point: 235.8 °C

SMILES: Cn1cnc(C(=O)N[C@@H]2CCC[C@H](Nc3nc(-c4c[nH]c5c(F)cc(C(F)(F)F)cc45)ncc3F)C2)c1 (racemic) [Compound 264]
- IC50 [1]: 19 nM
- CC50 at 3 days (in vitro): 3800 nM
- melting point: 266.5 °C

SMILES: Cc1cnc(C(=O)N[C@@H]2CCC[C@H](Nc3nc(-c4c[nH]c5c(F)cc(Cl)cc45)ncc3F)C2)cn1 (relative stereo) [Compound 11, N-((1R*,3S*)-3-((2-(5-chloro-7-fluoro-1H-indol-3-yl)-5-fluoropyrimidin-4-yl)amino)cyclohexyl)-5-methylpyrazine-2-carboxamide]
- IC50 [1]: 40 nM
- CC50 at 3 days (in vitro): 9000 nM
- melting point: 251.5 °C

SMILES: O=C(O)c1ccccc1C(=O)N[C@@H]1CCC[C@H](Nc2nc(-c3c[nH]c4c(F)cc(F)cc34)ncc2F)C1 (relative stereo) [Compound 224, 2-(((1R*,3S*)-3-((2-(5,7-difluoro-1H-indol-3-yl)-5-fluoropyrimidin-4-yl)amino)cyclohexyl)carbamoyl)benzoic Acid]
- IC50 [1]: 160 nM
- CC50 at 3 days (in vitro): > 5000 nM
- melting point: 201.5 °C

SMILES: CC[C@@]1(C(=O)O)CCCC[C@H]1Nc1nc(-c2c[nH]c3c(F)cc(F)cc23)c(C#N)cc1F (relative stereo) [Compound 247, (trans)-2-((5-cyano-6-(5,7-difluoro-1H-indol-3-yl)-3-fluoropyridin-2-yl)-amino)-1-ethylcyclohexanecarboxylic Acid]
- IC50 [1]: 50 nM
- CC50 at 3 days (in vitro): 400 nM
- melting point: 254.9 °C

SMILES: COc1cccc(C(=O)N[C@@H]2CCC[C@H](Nc3nc(-c4c[nH]c5c(F)cc(Cl)cc45)ncc3F)C2)n1 [Compound 31]
- IC50 [1]: 47 nM
- CC50 at 3 days (in vitro): 19900 nM
- melting point: 256.7 °C

SMILES: Cc1cccnc1C(=O)N[C@@H]1CCC[C@H](Nc2nc(-c3c[nH]c4c(F)cc(Cl)cc34)ncc2F)C1 [Compound 32]
- IC50 [1]: 9 nM
- CC50 at 3 days (in vitro): > 22000 nM
- melting point: 226.5 °C

SMILES: O=C(N[C@@H]1CCC[C@H](Nc2nc(-c3c[nH]c4c(F)cc(Cl)cc34)ncc2F)C1)c1cnccn1 [Compound 33]
- IC50 [1]: 7 nM
- CC50 at 3 days (in vitro): 13800 nM
- melting point: 249.9 °C

SMILES: O=C(N[C@@H]1CCC[C@H](Nc2nc(-c3c[nH]c4c(F)cc(Cl)cc34)ncc2F)C1)c1ncccc1O [Compound 34]
- IC50 [1]: 8 nM
- CC50 at 3 days (in vitro): 8700 nM
- melting point: 242.2 °C

SMILES: O=C(N[C@@H]1CCC[C@H](Nc2nc(-c3c[nH]c4c(F)cc(Cl)cc34)ncc2F)C1)c1cccc(O)n1 [Compound 35]
- IC50 [1]: 3 nM
- CC50 at 3 days (in vitro): > 19400 nM
- melting point: 253.4 °C

SMILES: Cc1cc(C(=O)N[C@@H]2CCC[C@H](Nc3nc(-c4c[nH]c5c(F)cc(Cl)cc45)ncc3F)C2)nn1C [Compound 36]
- IC50 [1]: 10 nM
- CC50 at 3 days (in vitro): 5500 nM
- melting point: 178.2 °C

SMILES: O=C(N[C@@H]1CCC[C@H](Nc2nc(-c3c[nH]c4c(F)cc(Cl)cc34)ncc2F)C1)c1ccsc1 [Compound 37]
- IC50 [1]: 1 nM
- CC50 at 3 days (in vitro): 2400 nM
- melting point: > 300 °C

SMILES: Nc1cccc(C(=O)N[C@@H]2CCC[C@H](Nc3nc(-c4c[nH]c5c(F)cc(Cl)cc45)ncc3F)C2)n1 [Compound 38]
- IC50 [1]: 3 nM
- CC50 at 3 days (in vitro): 2700 nM
- melting point: 268.4 °C

SMILES: Cc1cc(C(=O)N[C@@H]2CCC[C@H](Nc3nc(-c4c[nH]c5c(F)cc(Cl)cc45)ncc3F)C2)n(C)n1 [Compound 41]
- IC50 [1]: 10 nM
- CC50 at 3 days (in vitro): 6000 nM
- melting point: 281.2 °C

SMILES: O=C(N[C@@H]1CCC[C@H](Nc2nc(-c3c[nH]c4c(F)cc(Cl)cc34)ncc2F)C1)c1cnn[nH]1 [Compound 42]
- IC50 [1]: 0.5 nM
- CC50 at 3 days (in vitro): 3100 nM
- melting point: 280.1 °C

SMILES: Cc1cc(C(=O)N[C@@H]2CCC[C@H](Nc3nc(-c4c[nH]c5c(F)cc(Cl)cc45)ncc3F)C2)n[nH]1 [Compound 43]
- IC50 [1]: 4 nM
- CC50 at 3 days (in vitro): 2700 nM
- melting point: 189.2 °C

SMILES: Cc1ncn(C)c1C(=O)N[C@@H]1CCC[C@H](Nc2nc(-c3c[nH]c4c(F)cc(Cl)cc34)ncc2F)C1 [Compound 45]
- IC50 [1]: 33 nM
- CC50 at 3 days (in vitro): > 25000 nM
- melting point: > 300 °C

SMILES: O=C(N[C@@H]1CCC[C@H](Nc2nc(-c3c[nH]c4c(F)cc(Cl)cc34)ncc2F)C1)c1ncccn1 [Compound 46]
- IC50 [1]: 5 nM
- CC50 at 3 days (in vitro): 4800 nM
- melting point: 286.8 °C

SMILES: Cc1scnc1C(=O)N[C@@H]1CCC[C@H](Nc2nc(-c3c[nH]c4c(F)cc(Cl)cc34)ncc2F)C1 [Compound 47]
- IC50 [1]: 3 nM
- CC50 at 3 days (in vitro): 7400 nM
- melting point: > 300 °C

SMILES: Cc1ocnc1C(=O)N[C@@H]1CCC[C@H](Nc2nc(-c3c[nH]c4c(F)cc(Cl)cc34)ncc2F)C1 [Compound 48]
- IC50 [1]: 4 nM
- CC50 at 3 days (in vitro): 5000 nM
- melting point: 253.4 °C

SMILES: Cn1nncc1C(=O)N[C@@H]1CCC[C@H](Nc2nc(-c3c[nH]c4c(F)cc(Cl)cc34)ncc2F)C1 [Compound 49]
- IC50 [1]: 9 nM
- CC50 at 3 days (in vitro): > 25000 nM
- melting point: 249.6 °C

SMILES: Cc1nc(C(=O)N[C@@H]2CCC[C@H](Nc3nc(-c4c[nH]c5c(F)cc(Cl)cc45)ncc3F)C2)no1 [Compound 50]
- IC50 [1]: 24 nM
- CC50 at 3 days (in vitro): > 25000 nM
- melting point: 276.7 °C

SMILES: O=C(N[C@@H]1CCC[C@H](Nc2nc(-c3c[nH]c4c(F)cc(Cl)cc34)ncc2F)C1)c1cc[nH]n1 [Compound 51]
- IC50 [1]: 1 nM
- CC50 at 3 days (in vitro): 2800 nM
- melting point: 263.3 °C

SMILES: Cn1cc(C(=O)N[C@@H]2CCC[C@H](Nc3nc(-c4c[nH]c5c(F)cc(Cl)cc45)ncc3F)C2)cn1 [Compound 52]
- IC50 [1]: 2 nM
- CC50 at 3 days (in vitro): 4400 nM
- melting point: 286.8 °C

SMILES: O=C(N[C@@H]1CCC[C@H](Nc2nc(-c3c[nH]c4c(F)cc(Cl)cc34)ncc2F)C1)c1cncnc1 [Compound 53]
- IC50 [1]: 20 nM
- CC50 at 3 days (in vitro): > 25000 nM
- melting point: > 300 °C

SMILES: Nc1n[nH]c(C(=O)N[C@@H]2CCC[C@H](Nc3nc(-c4c[nH]c5c(F)cc(Cl)cc45)ncc3F)C2)n1 [Compound 54]
- IC50 [1]: 4 nM
- CC50 at 3 days (in vitro): 10400 nM
- melting point: 293.5 °C

SMILES: O=C(N[C@@H]1CCC[C@H](Nc2nc(-c3c[nH]c4c(F)cc(Cl)cc34)ncc2F)C1)c1ncc(F)cc1F [Compound 55]
- IC50 [1]: 25 nM
- CC50 at 3 days (in vitro): 6600 nM
- melting point: > 300 °C

SMILES: CN(C)c1ccnc(C(=O)N[C@@H]2CCC[C@H](Nc3nc(-c4c[nH]c5c(F)cc(Cl)cc45)ncc3F)C2)c1 [Compound 56]
- IC50 [1]: 6 nM
- CC50 at 3 days (in vitro): 10700 nM
- melting point: 281.8 °C

SMILES: Cn1cc(Br)nc1C(=O)N[C@@H]1CCC[C@H](Nc2nc(-c3c[nH]c4c(F)cc(Cl)cc34)ncc2F)C1 [Compound 57]
- IC50 [1]: 10 nM
- CC50 at 3 days (in vitro): 5000 nM
- melting point: 214.9 °C

SMILES: O=C(N[C@@H]1CCC[C@H](Nc2nc(-c3c[nH]c4c(F)cc(Cl)cc34)ncc2F)C1)c1ncc[nH]1 [Compound 58]
- IC50 [1]: 1 nM
- CC50 at 3 days (in vitro): 3500 nM
- melting point: > 300 °C

SMILES: Nc1cc(C(=O)N[C@@H]2CCC[C@H](Nc3nc(-c4c[nH]c5c(F)cc(Cl)cc45)ncc3F)C2)n[nH]1 [Compound 59]
- IC50 [1]: 2 nM
- CC50 at 3 days (in vitro): 7800 nM
- melting point: 245.2 °C

SMILES: CCn1nccc1C(=O)N[C@@H]1CCC[C@H](Nc2nc(-c3c[nH]c4c(F)cc(Cl)cc34)ncc2F)C1 [Compound 60]
- IC50 [1]: 2 nM
- CC50 at 3 days (in vitro): > 25000 nM
- melting point: > 300 °C

SMILES: Cn1nccc1C(=O)N[C@@H]1CCC[C@H](Nc2nc(-c3c[nH]c4c(F)cc(Cl)cc34)ncc2F)C1 [Compound 61]
- IC50 [1]: 1 nM
- CC50 at 3 days (in vitro): > 25000 nM
- melting point: > 300 °C

SMILES: CN1CCC[C@@H]1C(=O)N[C@@H]1CCC[C@H](Nc2nc(-c3c[nH]c4c(F)cc(Cl)cc34)ncc2F)C1 [Compound 62]
- IC50 [1]: 730 nM
- CC50 at 3 days (in vitro): 6900 nM
- melting point: 196.5 °C

SMILES: O=C(N[C@@H]1CCC[C@H](Nc2nc(-c3c[nH]c4c(F)cc(Cl)cc34)ncc2F)C1)c1c[nH]cn1 [Compound 63]
- IC50 [1]: 2 nM
- CC50 at 3 days (in vitro): 8900 nM
- melting point: 245 °C

SMILES: Cn1cncc1C(=O)N[C@@H]1CCC[C@H](Nc2nc(-c3c[nH]c4c(F)cc(Cl)cc34)ncc2F)C1 [Compound 64]
- IC50 [1]: 3 nM
- CC50 at 3 days (in vitro): > 25000 nM
- melting point: 291.8 °C

SMILES: Nc1nccc(C(=O)N[C@@H]2CCC[C@H](Nc3nc(-c4c[nH]c5c(F)cc(Cl)cc45)ncc3F)C2)n1 [Compound 65]
- IC50 [1]: 3 nM
- CC50 at 3 days (in vitro): > 25000 nM
- melting point: 261.7 °C

SMILES: Nc1cc(C(=O)N[C@@H]2CCC[C@H](Nc3nc(-c4c[nH]c5c(F)cc(Cl)cc45)ncc3F)C2)ncn1 [Compound 66]
- IC50 [1]: 3 nM
- CC50 at 3 days (in vitro): 5200 nM
- melting point: 152.4 °C

SMILES: Cn1cc(C(=O)N[C@@H]2CCC[C@H](Nc3nc(-c4c[nH]c5c(F)cc(Cl)cc45)ncc3F)C2)nn1 [Compound 67]
- IC50 [1]: 12 nM
- CC50 at 3 days (in vitro): 840 nM
- melting point: 283 °C

SMILES: Cn1nc(N)cc1C(=O)N[C@@H]1CCC[C@H](Nc2nc(-c3c[nH]c4c(F)cc(Cl)cc34)ncc2F)C1 [Compound 68]
- IC50 [1]: 3 nM
- CC50 at 3 days (in vitro): 21000 nM
- melting point: 267.2 °C

SMILES: O=C(N[C@@H]1CCC[C@H](Nc2nc(-c3c[nH]c4c(F)cc(Cl)cc34)ncc2F)C1)c1ncn[nH]1 [Compound 69]
- IC50 [1]: 2 nM
- CC50 at 3 days (in vitro): 8400 nM
- melting point: 293.5 °C

SMILES: Cn1cnc(C(=O)N[C@@H]2CCC[C@H](Nc3nc(-c4c[nH]c5c(F)cc(Cl)cc45)ncc3F)C2)n1 [Compound 70]
- IC50 [1]: 4 nM
- CC50 at 3 days (in vitro): 9100 nM
- melting point: 291.9 °C
